The assay has as its target T1, Aβ42 (Homo sapiens, UniProt P05067).
T1 construct: Both 40 and 42 amino acid amyloid beta peptides were purchased from rPeptide; purchased rPeptide (Bogart, USA)
Put plainly: automatic MALDI-TOF MS high-throughput screening assay for inhibitors of Aβ42 aggregation (detection of monomeric Aβ42, insulin B chain as internal standard). The assay is classed as biochemical. The following applies: 35 selected substances tested; 5 µM Aβ42 in 20mM HEPES 0.1 M NaCl pH 7.5; monomeric Aβ42 detected by MALDI-TOF MS.
T1 sequence (P05067 672-713 limits assumed): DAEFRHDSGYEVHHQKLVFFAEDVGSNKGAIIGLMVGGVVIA
Protocol: For every aggregation experiment Aβ42 solutions were prepared following the same procedure. The lyophilized peptide was taken out from the -80°C fridge, and incubated at room temperature until thawing. Cold 0.02% ammonium hydroxide was added to the peptide to get a final concentration of 10 µM. The solution was mixed on the vortex for a minute and put on ice. Before the beginning of the experiment the solution was mixed again for a shorter time. To start the experiment, the peptide stock solution was diluted in a ratio of 1:1 into the buffer, which contained various concentrations of a tested compound. All probes contained 5 µM Aβ42 in 20mM HEPES 0.1 M NaCl pH 7.5. Aβ42 solutions were always prepared shortly before the beginning of experiment.
First, 5 µM B chain solution in 60% AcN 0.3% TFA was prepared and added to the α-cyano matrix solution to generate a 10 mg/ml α-cyano, 0.25 µM B chain solution in 60% AcN 0.3% TFA. The solution was mixed on a vortex for a minute and then incubated at room temperature for 10 minutes. Solution was mixed again, centrifuged for 3 min at 6000 rpm and the supernatant was transferred into a clean vial. Shortly before the beginning of aggregation experiments, Aβ42 solutions were prepared and transferred to sequential wells of a 96-well plate.
Spots on MALDI plates were generated automatically by an Ettan Spotter (Amersham Biosciences, Sweden). Different spotting procedures were tested and best results were obtained using the following method: 0.5 µl sample + 1.5 µl matrix containing the internal calibrant - mixing 3 times with a volume of 1 µl.
The spots were air-dried and spectra were collected automatically with Voyager DE™ STR BioSpectrometry™Workstation (Applied Biosystems, USA) mass spectrometer. […] The spectra were processed with Data Explorer™ Software (Version 4; Applied Biosystems, USA).
As for Zn(CH3COO)2 [zinc], the “inhibition of aggregation of Aβ42” value is listed as “inhibited aggregation of Aβ42”.
With copper, the “inhibition of aggregation of Aβ42” value is given as “inhibited aggregation of Aβ42”.
In the case of hemin, the “inhibition of aggregation of Aβ42” value was “inhibits aggregation of Aβ42”.
